Laboratory results as given in ChEMBL document CHEMBL4811276, “WITHDRAWN: Discovery of indoline derivatives as anticancer agents via inhibition of tubulin polymerization” (Bioorg Med Chem Lett, 2021).
pIC50: −log10 of the molar value. Active and inactive are the calls of the source. The calls are words filed in the database; no cut-off is given here.

Columns and labels:
MGC-803 = test: Antiproliferative activity against human MGC-803 cells assessed as inhibition of cell proliferation measured after 48 hrs by CCK8 assay; assay type: functional, cell-based; settings: MGC-803, 48 h
A549 = test: Antiproliferative activity against human A549 cells assessed as inhibition of cell proliferation measured after 48 hrs by CCK8 assay; assay type: functional, cell-based; settings: A549, 48 h
KYSE-30 = test: Antiproliferative activity against human KYSE-30 cells assessed as inhibition of cell proliferation measured after 48 hrs by CCK8 assay; assay type: functional, cell-based; settings: KYSE-30, 48 h
KYSE-450 [1] = test: Antiproliferative activity against human KYSE-450 cells assessed as inhibition of cell proliferation measured after 48 hrs by CCK8 assay; assay type: functional, cell-based; settings: KYSE-450, 48 h
KYSE-510 = test: Antiproliferative activity against human KYSE-510 cells assessed as inhibition of cell proliferation measured after 48 hrs by CCK8 assay; assay type: functional, cell-based; settings: KYSE-510, 48 h
ECa-109 cell line = test: Antiproliferative activity against human Eca-109 cells assessed as inhibition of cell proliferation measured after 48 hrs by CCK8 assay; assay type: functional, cell-based; settings: ECa-109, 48 h
Tubulin (Homo sapiens) = Tubulin (Homo sapiens) (UniProt P68371+Q9H4B7+P0DPH7+P68366+Q13509+Q71U36+P04350+Q3ZCM7+P07437+P68363+Q9BQE3+Q6PEY2+Q13885+Q9BVA1+Q9BUF5); test: Inhibition of tubulin polymerization in human KYSE-450 cells assessed by disorganised spindle at 1.25 to 2.5 uM measured after 48 hrs by immunoflourescence assay relative to colchicine; assay type: cell-based; settings: dose 1.25-2.5 µM
Tubulin = test: Inhibition of tubulin polymerization in human KYSE-450 cells measured by EBI competition assay relative to colchicine; assay type: cell-based
KYSE-450 [2] = test: Antiproliferative activity against human KYSE-450 cells assessed reduced cell viability at 1 to 80 uM measured after 48 hrs; assay type: functional, cell-based; settings: dose 1-80 µM
KYSE-450 [3] = test: Antiproliferative activity against human KYSE-450 cells assessed reduced cell viability at 0.313 to 2.5 uM; assay type: functional, cell-based; settings: dose 0.313-2.5 µM, time 20-40 hrs, TDE = time-dependent effect
KYSE-450 [4] = test: Antiproliferative activity against human KYSE-450 cells assessed reduced cell viability measured after 20 to 60 hrs; assay type: functional, cell-based; settings: dose 0.313-2.5 µM, time 20-60 hrs
KYSE-450 [5] = test: Induction of apoptosis in human KYSE-450 cells assessed by round cells at 0.313 to 2.5 uM measured after 48 hrs by DAPI staining based microscopic method; assay type: functional, cell-based; settings: dose 0.313-2.5 µM
KYSE-450 [6] = test: Induction of apoptosis in human KYSE-450 cells assessed by smaller nucleus at 0.313 to 2.5 uM measured after 48 hrs by DAPI staining based microscopic method; assay type: functional, cell-based; settings: dose 0.313-2.5 µM
KYSE-450 [7] = test: Induction of apoptosis in human KYSE-450 cells assessed by concentrated nucleus at 0.313 to 2.5 uM measured after 48 hrs by DAPI staining based microscopic method; assay type: functional, cell-based; settings: dose 0.313-2.5 µM
KYSE-450 [8] = test: Antiproliferative activity against human KYSE-450 cells assessed as inhibition of colony formation at 0.188 uM measured after 7 days by colony formation assay; assay type: functional, cell-based; settings: time 7.0 day

Structure (SMILES)	pIC50 (MGC-803)	pIC50 (A549)	pIC50 (KYSE-30)	also measured
O=C(Cc1ccccc1)N1CCc2cc(Br)ccc21	4.08	4.55	< 4.40	–
Cc1ccc(C(=O)N2CCc3cc(Br)ccc32)cc1	< 4.40	4.41	< 4.40	–
COc1cc(C(=O)N2CCc3cc(Br)ccc32)cc(OC)c1OC	5.74	5.17	5.79	pIC50 (KYSE-450 [1]): 5.83; pIC50 (KYSE-510): 5.68; pIC50 (ECa-109 cell line): 5.65; inhibition (Tubulin (Homo sapiens)): Active; pIC50 (Tubulin): 5.47; Activity (KYSE-450 [2]): Active; Activity (KYSE-450 [3]): Tde; Activity (KYSE-450 [4]): Dose-Dependent Effect; Activity (KYSE-450 [5]): Active; Activity (KYSE-450 [6]): Active; Activity (KYSE-450 [7]): Active; Activity (KYSE-450 [8]): Active
COc1cc(C(=O)N2CCCc3ccccc32)cc(OC)c1OC	5.36	4.63	5.17	–
O=C(Cc1ccc(Br)cc1)N1CCc2cc(Br)ccc21	4.45	< 4.40	4.68	–
O=C(c1ccc(Br)cc1)N1CCc2cc(Br)ccc21	4.47	< 4.40	4.57	–
COc1cc(C(=O)N2CCCCc3ccccc32)cc(OC)c1OC	5.37	4.66	4.78	–
COc1ccc(C(=O)N2CCc3cc(Br)ccc32)cc1	4.73	4.68	4.72	–
COc1cc2c(c(OC)c1OC)-c1ccc(OC)c(=O)cc1[C@@H](NC(C)=O)CC2 [COLCHICINE]	5.97	6.72	6.55	–
COc1cc(CC(=O)N2CCc3cc(Br)ccc32)cc(OC)c1OC	4.65	4.61	4.69	–
COc1ccc(CC(=O)N2CCc3cc(Br)ccc32)cc1	4.54	4.61	< 4.40	–
O=C(Cc1ccc(F)cc1)N1CCc2cc(Br)ccc21	< 4.40	< 4.40	< 4.40	–
Cc1ccc(CC(=O)N2CCc3cc(Br)ccc32)cc1	4.42	< 4.40	4.48	–
O=C(c1ccc(F)cc1)N1CCc2cc(Br)ccc21	4.62	4.72	4.66	–
COc1cc(C(=O)N2CCc3cc([N+](=O)[O-])ccc32)cc(OC)c1OC	5.08	4.75	5.18	–
COc1cc(C(=O)N2CCc3ccccc32)cc(OC)c1OC	5.12	4.66	5.11	–
O=C(c1ccccc1)N1CCc2cc(Br)ccc21	4.55	< 4.40	4.69	–
